Assays:
[1] = subchronic; duration: 90 days
[2] = subchronic, duration: 90 days, oral, diet

Question: For `CC(=O)SC1=C(C)OCC1` [2-Methyl-3-thioacetoxy-4,5-dihydrofuran], which NOEL (Rattus norvegicus; chronic, duration: 1 years, oral, diet) is on record?
Answer: 8.3 mg/kg-day

Question: With `CC(=O)CC(C)SCc1ccco1` (centres undefined) [4-{[(Furan-2-yl)methyl]sulfanyl}pentan-2-one] as the compound, how does the NOAEL (Rattus norvegicus; [2]) read?
Answer: 3.76 mg/kg-day

Question: With `Cc1cc(SC(=O)CC(C)C)c(C)o1` [2,5-Dimethyl-3-thioisovalerylfuran] as the compound, how does the NOEL (Rattus norvegicus; subchronic, duration: 90 days) read?
Answer: 0.73 mg/kg-day

Question: With `Cc1occc1SSc1ccoc1C` [Bis(2-methyl-3-furyl)disulfide] as the compound, how does the NOEL (Rattus norvegicus; [2]) read?
Answer: 0.45 mg/kg-day

Question: For `Cc1occc1SSSSc1ccoc1C` [Bis(2-methyl-3-furyl) tetrasulfide], which NOEL (Rattus norvegicus; subchronic, duration: 90 days) is on record?
Answer: 0.56 mg/kg-day

Question: For `CCSC(C)=O` [S-Ethyl thiolacetate], which NOAEL [1] is on record?
Answer: 6.7 mg/kg-day

Question: With `CCOC(=O)CCSCc1ccco1` [Ethyl 3-(furfurylthio)propionate] as the compound, how does the NOEL (Rattus norvegicus; subchronic, duration: 90 days) read?
Answer: 17 mg/kg-day

Question: Which NOAEL [1] does the source give for `CSC(=O)c1ccco1` [2-Furancarbothioic acid, S-methyl ester] here?
Answer: 6.7 mg/kg-day

Question: With `Cc1cc(SSc2cc(C)oc2C)c(C)o1` [Furan, 3,3'-dithiobis[2,5-dimethyl-] as the compound, how does the NOEL (Rattus norvegicus; [2]) read?
Answer: 0.45 mg/kg-day

Reference: EPA's ToxValDB 9.5 (doi:10.2903/j.efsa.2010.1406)
